The values that follow come from patent US11136311B2, “Heteroaromatic derivatives as NIK inhibitors” (Janssen Pharmaceutica NV, priority 2016, dated 2021).

Assay [1] has as its target recombinant human NF-kappaB-inducing kinase (NIK/MAP3K14) (Homo sapiens (Human), UniProt Q99558). Kind of assay: Inhibition of auto-phosphorylation of recombinant human NIK/MAP3K14 activity (AlphaScreen). It counts as biochemical. The note with it: averaged values over all measurements on all batches. Here is the method:
Inhibition of auto-phosphorylation of recombinant human NF-kappaB-inducing kinase (NIK/MAP3K14) activity (AlphaScreen®)
NIK/MAP3K14 auto-phosphorylation activity was measured using the AlphaScreen® (αscreen) format (Perkin Elmer). All compounds tested were dissolved in dimethyl sulfoxide (DMSO) and further dilutions were made in assay buffer. Final DMSO concentration was 1% (v/v) in assays. Assay buffer was 50 mM Tris pH 7.5 containing 1 mM EGTA (ethylene glycol tetraacetic acid), 1 mM DTT (dithiothreitol), 0.1 mM Na3VO4, 5 mM MgCl2, 0.01% Tween® 20. Assays were carried out in 384 well Alphaplates (Perkin Elmer). Incubations consisted of compound, 25 microM Adenosine-5′-triphosphate (ATP), and 0.2 nM NIK/MAP3K14. Incubations were initiated by addition of GST-tagged NIK/MAP3K14 enzyme, carried out for 1 h at 25° C. and terminated by addition of stop buffer containing anti-phospho-IKK Ser176/180 antibody. Protein A Acceptor and Glutathione-Donor beads were added before reading using an EnVision® Multilabel Plate Reader (Perkin Elmer). Signal obtained in the wells containing blank samples was subtracted from all other wells and IC50's were determined by fitting a sigmoidal curve to % inhibition of control versus Log10 compound concentration.
A general note: Alpha assays give light when donor and acceptor beads are brought close together.

In assay [2] the test system is JJN-3 cells. Kind of assay: Antiproliferative activity on JJN-3 (NIK translocated) multiple myeloma cells (CellTiter-Glo). Conditions: Homo sapiens, JJN-3, 96 h, JJN-3 (NIK translocated) cells, 96 hr; averaged values; read-out: JJN-3 Proliferation inhibition (IC50 (nM)). Format: cell-based, human. As for the experimental part: (§1) Determination of antiproliferative activity on JJN-3 (NIK translocated) and KMS12-BM (NIK WT) multiple myeloma cells
(§2) All compounds tested were dissolved in DMSO and further dilutions were made in culture medium. Final DMSO concentration was 0.3% (v/v) in cell proliferation assays. Viability was assessed using CellTiter-Glo cell viability assay kit (Promega). The human JJN-3 and KMS12-BM cells (DSMZ) were cultured in RPMI 1640 medium supplemented with 2 mM L-glutamine, and 10% fetal calf serum (PAA). Cells were routinely kept as suspension cells at 37° C. in a humidified 5% CO2 atmosphere. Cells were passaged at a seeding density of 0.2×10^6/ml twice a week. Cells were seeded in black tissue culture treated 96-well plates (Perkin Elmer). Densities used for plating ranged from 15000 (JJN3) to 20000 (KMS12BM) cells per well in a total volume of 135 μl medium. Drugs and/or solvents were added (15 μl) to a final volume of 150 μl. Following 96 hr of treatment, plates were removed from the incubator and allowed to equilibrate to room temperature for approx 10 min. 75 μl CellTiter-Glo reagent was added to each well that was then covered (Perkin Elmer Topseal) and shaken on plate shaker for 10 min. Luminescence was measured on a HTS Topcount (Perkin Elmer). Within an experiment, the results for each treatment were the mean of 2 replicate wells. For initial screening purposes, compounds were tested using a 9 point dilution curve (serial 1:3 dilutions). For each experiment, controls (containing no drug) and a blank incubation (containing cells read at the time of compound addition) were run in parallel. The blank value was subtracted from all control and sample values. For each sample, the mean value for cell growth (in relative light units) was expressed as a percentage of the mean value for cell growth of the control.

The test system of assay [3] is KMS12-BM cells. Kind of assay: Antiproliferative activity on KMS12-BM (NIK WT) multiple myeloma cells (CellTiter-Glo). Format: cell-based, human. The note with it: Homo sapiens, KMS-12-BM, 96 h, KMS12-BM (NIK WT) cells, 96 hr; averaged values; read-out: KMS-12 Proliferation inhibition (IC50 (nM)). Here is the method: as §1, §2
On the technique in general: In ATP-based viability assays light output follows the ATP content of the culture.

Each structure is given as a SMILES string.

Sequence of recombinant human NF-kappaB-inducing kinase (NIK/MAP3K14) (Q99558 whole entry): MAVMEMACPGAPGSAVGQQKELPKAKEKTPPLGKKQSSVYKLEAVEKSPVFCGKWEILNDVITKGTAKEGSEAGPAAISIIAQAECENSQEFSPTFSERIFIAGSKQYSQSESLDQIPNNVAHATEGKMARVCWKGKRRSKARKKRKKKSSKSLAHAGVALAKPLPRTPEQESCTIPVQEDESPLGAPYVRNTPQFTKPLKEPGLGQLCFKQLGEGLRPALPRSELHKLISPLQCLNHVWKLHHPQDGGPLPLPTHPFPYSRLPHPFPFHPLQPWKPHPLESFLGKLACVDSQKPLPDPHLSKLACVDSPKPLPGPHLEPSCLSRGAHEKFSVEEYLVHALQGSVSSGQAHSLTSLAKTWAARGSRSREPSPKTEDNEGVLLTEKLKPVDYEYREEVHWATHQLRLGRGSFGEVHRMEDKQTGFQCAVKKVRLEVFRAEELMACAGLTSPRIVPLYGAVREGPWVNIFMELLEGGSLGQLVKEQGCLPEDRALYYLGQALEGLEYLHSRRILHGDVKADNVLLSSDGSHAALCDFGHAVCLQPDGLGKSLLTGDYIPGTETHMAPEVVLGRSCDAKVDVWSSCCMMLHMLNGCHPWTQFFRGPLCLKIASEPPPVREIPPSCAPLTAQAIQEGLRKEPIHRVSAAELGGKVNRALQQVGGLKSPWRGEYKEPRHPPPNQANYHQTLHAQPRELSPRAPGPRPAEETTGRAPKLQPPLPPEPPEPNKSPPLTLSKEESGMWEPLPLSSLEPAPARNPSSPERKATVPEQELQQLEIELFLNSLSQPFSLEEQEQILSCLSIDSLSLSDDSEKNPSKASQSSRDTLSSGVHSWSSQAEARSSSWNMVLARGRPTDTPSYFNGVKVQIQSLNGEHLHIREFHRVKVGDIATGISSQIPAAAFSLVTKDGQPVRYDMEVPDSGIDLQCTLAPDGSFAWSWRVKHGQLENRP

For `Cc1c(Nc2nccc(-c3cc(C#N)c4c(c3)C(C)(CO)CN4)n2)cnn1C` (stereo not drawn) [Compound 36], the IC50 in assay [1] turned out to be 2.6 nM; in assay [2], 174 nM; in assay [3], 7590 nM.

For `CN1CCC(n2ccc(Nc3nccc(-c4cc(C#N)c5c(c4)[C@@](C)(CO)CN5)n3)n2)CC1` [Compound 37], the IC50 in assay [1] stood at 2 nM; in assay [2], 162 nM; in assay [3], 182 nM.

For `CN1CCC(n2nccc2Nc2nccc(-c3cc(C#N)c4c(c3)[C@@](C)(CO)CN4)n2)CC1` [Compound 38], the IC50 was 47 nM in assay [1], 3980 nM in assay [2] and 3890 nM in assay [3].

In the case of `Cn1nc(Nc2nccc(-c3cc(C#N)c4c(c3)[C@@](C)(CO)CN4)n2)cc1CN1CCOCC1` [Compound 39], the figures for the IC50 in assay [1], in assay [2] and in assay [3] were 32 nM, 1440 nM and more than 10000 nM, respectively.

As for `C[C@]1(CO)CNc2c(C#N)cc(-c3ccnc(Nc4ccn(CC5CC5)n4)n3)cc21` [Compound 40], the IC50 is 2.2 nM in assay [1], 295 nM in assay [2] and 562 nM in assay [3].

As for `Cn1nc(Cl)cc1Nc1nccc(-c2cc(C#N)c3c(c2)[C@@](C)(CO)CN3)n1` [Compound 41], the figures for the IC50 in assay [1], in assay [2] and in assay [3] were 2.1 nM, 78 nM and approximately 479 nM, respectively.

Consider `Cn1nc(Nc2nccc(-c3cc(C#N)c4c(c3)[C@@](C)(CO)CN4)n2)cc1Cl` [Compound 43], for which the IC50 in assay [1] worked out at 2.6 nM; in assay [2] it was 234 nM; in assay [3], 933 nM.

With `CCOCCn1nc(C)cc1Nc1nccc(-c2cc(C#N)c3c(c2)[C@@](C)(CO)CN3)n1` [Compound 44], the IC50 came to 4.5 nM in assay [1], 324 nM in assay [2] and 8710 nM in assay [3].

On to `CN(C)C(=O)c1cc(Nc2nccc(-c3cc(C#N)c4c(c3)[C@@](C)(CO)CN4)n2)nn1C` [Compound 45], for which the values for the IC50 in assay [1], in assay [2] and in assay [3] were 7.6 nM, 1320 nM and 4170 nM, respectively.

With `COCCCn1nccc1Nc1nccc(-c2cc(C#N)c3c(c2)[C@@](C)(CO)CN3)n1` [Compound 46], the IC50 in assay [1] was found to be 6.6 nM; in assay [2], 158 nM; in assay [3] it was 2400 nM.

On to `COCCCn1nccc1Nc1nccc(-c2cc(C#N)c3c(c2)[C@](C)(CO)CN3)n1` [Compound 47], for which the IC50 in assay [1] was 44 nM; in assay [2] it was 1550 nM; in assay [3], more than 10000 nM.

`CC(C)n1ccc(Nc2nccc(-c3cc(C#N)c4c(c3)[C@@](C)(CO)CN4)n2)n1` [Compound 48]: the IC50 came to 5.1 nM in assay [1], 89 nM in assay [2] and 263 nM in assay [3].

Consider `Cn1nc(Nc2nccc(-c3cc(C#N)c4c(c3)C(C)(CO)CN4)n2)cc1C(=O)NC1CCOCC1` (stereo not drawn) [Compound 50], for which the IC50 was 3.8 nM in assay [1], 316 nM in assay [2] and more than 10000 nM in assay [3].

As to `CNC(=O)c1nn(C)cc1Nc1nccc(-c2cc(C#N)c3c(c2)[C@@](C)(CO)CN3)n1` [Compound 53], the IC50 in assay [1] was 3.5 nM; in assay [2], 851 nM; in assay [3] it was approximately 5010 nM.

As for `COCCCn1nc(C)cc1Nc1nccc(-c2cc(C#N)c3c(c2)[C@](C)(CO)CN3)n1` [Compound 54], the IC50 in assay [1] was 11 nM; in assay [2], 525 nM; in assay [3], more than 10000 nM.

On to `Cc1cc(Nc2nccc(-c3cc(C#N)c4c(c3)[C@@](C)(CO)CN4)n2)n(CC(C)C)n1` [Compound 55], for which the IC50 in assay [1] was 4.4 nM; in assay [2], 59 nM; in assay [3], approximately 2040 nM.

`CNC(=O)c1cc(Nc2nccc(-c3cc(C#N)c4c(c3)[C@@](C)(CO)CN4)n2)n(C)n1` [Compound 56]: the figures for the IC50 in assay [1], in assay [2] and in assay [3] were 3.1 nM, approximately 363 nM and approximately 1410 nM, respectively.

As for `COCCn1nc(C)cc1Nc1nccc(-c2cc(C#N)c3c(c2)[C@](C)(CO)CN3)n1` [Compound 57], the IC50 in assay [1] was 28 nM; in assay [2] it was approximately 933 nM; in assay [3] it was more than 10000 nM.

As to `COC(C)(C)CCn1nc(Nc2nccc(-c3cc(C#N)c4c(c3)[C@@](C)(CO)CN4)n2)cc1C` [Compound 58], the IC50 in assay [1] turned out to be 1.5 nM; in assay [2], 69 nM; in assay [3] it was 468 nM.

On to `COC(C)(C)CCn1nc(C)cc1Nc1nccc(-c2cc(C#N)c3c(c2)[C@@](C)(CO)CN3)n1` [Compound 59], for which the IC50 in assay [1] stood at 5 nM; in assay [2], 68 nM; in assay [3], 1950 nM.

As for `Cc1cc(Nc2nccc(-c3cc(C#N)c4c(c3)[C@@](C)(CO)CN4)n2)n(CC2CCOCC2)n1` [Compound 61], the IC50 stood at 4.4 nM in assay [1], 162 nM in assay [2] and 355 nM in assay [3].

Consider `Cc1cc(Nc2nccc(-c3cc(C#N)c4c(c3)[C@@](C)(CO)CN4)n2)n(C2CCN(C)CC2)n1` [Compound 62], for which the IC50 in assay [1] amounted to 23 nM; in assay [2] it was 204 nM; in assay [3] it was 269 nM.

On to `Cc1cc(Nc2nccc(-c3cc(C#N)c4c(c3)[C@@](C)(CO)CN4)n2)n(C2CCOCC2)n1` [Compound 63], for which the values for the IC50 in assay [1], in assay [2] and in assay [3] were 9.8 nM, 692 nM and 6310 nM, respectively.

On to `Cn1cc(Nc2nccc(-c3cc(C#N)c4c(c3)[C@@](C)(CO)CN4)n2)c(C(F)(F)F)n1` [Compound 64], for which the IC50 in assay [1] turned out to be 1.9 nM; in assay [2], 240 nM; in assay [3] it was 3240 nM.

For `CC(C)(c1cc(Nc2nccc(-c3cc(C#N)c4c(c3)[C@@](C)(CO)CN4)n2)[nH]n1)S(C)(=O)=O` [Compound 65], the IC50 is 10 nM in assay [1], approximately 1410 nM in assay [2] and more than 10000 nM in assay [3].

Turning to `COCCn1nc(C2CCOCC2)cc1Nc1nccc(-c2cc(C#N)c3c(c2)[C@@](C)(CO)CN3)n1` [Compound 66], the results for the IC50 in assay [1], in assay [2] and in assay [3] were 13 nM, 324 nM and more than 10000 nM, respectively.

With `Cn1nc(C2CCOCC2)cc1Nc1nccc(-c2cc(C#N)c3c(c2)[C@@](C)(CO)CN3)n1` [Compound 67], the IC50 in assay [1] came to 1.6 nM; in assay [2], 141 nM; in assay [3], 912 nM.

For `Cc1nn(C2CCOCC2)cc1Nc1nccc(-c2cc(C#N)c3c(c2)[C@@](C)(CO)CN3)n1` [Compound 74], the results for the IC50 in assay [1], in assay [2] and in assay [3] were 3 nM, 324 nM and approximately 3890 nM, respectively.

As to `Cc1nn(CC2CCOCC2)cc1Nc1nccc(-c2cc(C#N)c3c(c2)[C@@](C)(CO)CN3)n1` [Compound 75], the IC50 was 13 nM in assay [1], 2090 nM in assay [2] and approximately 6030 nM in assay [3].

For the compound `Cc1cc(Nc2nccc(-c3cc(C#N)c4c(c3)[C@@](C)(CO)CN4)n2)n(CC(=O)N(C)C(C)C)n1` [Compound 79], the IC50 in assay [1] is 8.3 nM; in assay [2], 2240 nM; in assay [3], more than 10000 nM.

Take `Cc1cc(Nc2nccc(-c3cc(C#N)c4c(c3)[C@@](C)(CO)CN4)n2)n(CC(=O)N(C2CC2)C2CC2)n1` [Compound 80]: the IC50 amounted to 3.9 nM in assay [1], 1100 nM in assay [2] and 6170 nM in assay [3].

Regarding `Cn1cc(Nc2nccc(-c3cc(C#N)c4c(c3)[C@@](C)(CO)CN4)n2)c(CN2CCCC2=O)n1` [Compound 90], the IC50 was determined as 5.7 nM in assay [1], 1550 nM in assay [2] and 5130 nM in assay [3].

As to `Cc1nnc(Nc2nccc(-c3cc(C#N)c4c(c3)C(C)(CO)CN4)n2)o1` (stereo not drawn) [Compound 142], the IC50 was 42 nM in assay [1], more than 10000 nM in assay [2] and approximately 9770 nM in assay [3].

For `Cn1ccc(Nc2ncc(F)c(-c3cc(C#N)c4c(c3)C(C)(CO)CN4)n2)n1` (stereo not drawn) [Compound 143], the IC50 in assay [1] is 1.3 nM; in assay [2] it was approximately 81 nM; in assay [3] it was 204 nM.
